Measurements published in publication PMC7044277 (Nature Communications, 2020).
Where “and” joins values, the source holds several entries; their conditions need not be identical. Identical values can stand only once.

What was measured:
Experiment in all cases: β-arrestin2 recruitment (Tango)
Format in all cases: cell-based
5HT2C = target: T1, 5HT2C (Homo sapiens, UniProt P28335); settings: Fig_S10m; for β-arrestin2 recruitment response (dose-response source data, replicate values): drug alone; for β-arrestin2 recruitment response in presence of serotonin (replicate values): +10μM serotonin
T1 sequence (P28335 33-458): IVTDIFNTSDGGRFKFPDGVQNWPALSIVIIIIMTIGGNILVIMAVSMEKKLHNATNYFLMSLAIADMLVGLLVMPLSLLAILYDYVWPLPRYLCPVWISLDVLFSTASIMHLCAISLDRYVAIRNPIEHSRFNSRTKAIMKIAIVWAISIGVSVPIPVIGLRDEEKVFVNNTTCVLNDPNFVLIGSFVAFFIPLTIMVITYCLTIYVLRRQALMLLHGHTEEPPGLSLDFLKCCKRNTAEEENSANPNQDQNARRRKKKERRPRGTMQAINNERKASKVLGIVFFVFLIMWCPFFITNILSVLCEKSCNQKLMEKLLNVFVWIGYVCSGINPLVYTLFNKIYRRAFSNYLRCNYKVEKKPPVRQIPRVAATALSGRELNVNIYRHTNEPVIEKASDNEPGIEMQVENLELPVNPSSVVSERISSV

5HT6 = target: T2, 5HT6 (Homo sapiens, UniProt P50406); settings: Fig_S10p, agonist mode
T2 construct: expressed in transfected cells; host or cells: HTLA cells expressing TEV-fused β-arrestin2
T2 sequence (P50406 whole entry, the tested form may be a part): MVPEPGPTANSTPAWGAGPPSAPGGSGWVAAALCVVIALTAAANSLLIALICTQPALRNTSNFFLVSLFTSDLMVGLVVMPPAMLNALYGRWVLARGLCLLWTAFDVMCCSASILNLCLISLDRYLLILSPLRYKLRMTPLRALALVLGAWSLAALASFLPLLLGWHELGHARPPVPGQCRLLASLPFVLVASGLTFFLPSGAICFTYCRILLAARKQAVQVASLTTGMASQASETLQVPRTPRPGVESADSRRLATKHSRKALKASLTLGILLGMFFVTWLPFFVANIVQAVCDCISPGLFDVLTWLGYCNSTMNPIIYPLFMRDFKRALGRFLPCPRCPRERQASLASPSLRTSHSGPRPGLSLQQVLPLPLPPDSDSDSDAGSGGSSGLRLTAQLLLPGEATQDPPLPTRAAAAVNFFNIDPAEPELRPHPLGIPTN

5HT7A = target: T3, 5HT7A (Homo sapiens, UniProt P34969); settings: for β-arrestin2 recruitment response, replicate points of concentration-response curve: Fig_S10q, agonist mode
T3 construct: expressed in transfected cells; host or cells: HTLA cells expressing TEV-fused β-arrestin2
T3 sequence (P34969 1-445 isoform P34969-2): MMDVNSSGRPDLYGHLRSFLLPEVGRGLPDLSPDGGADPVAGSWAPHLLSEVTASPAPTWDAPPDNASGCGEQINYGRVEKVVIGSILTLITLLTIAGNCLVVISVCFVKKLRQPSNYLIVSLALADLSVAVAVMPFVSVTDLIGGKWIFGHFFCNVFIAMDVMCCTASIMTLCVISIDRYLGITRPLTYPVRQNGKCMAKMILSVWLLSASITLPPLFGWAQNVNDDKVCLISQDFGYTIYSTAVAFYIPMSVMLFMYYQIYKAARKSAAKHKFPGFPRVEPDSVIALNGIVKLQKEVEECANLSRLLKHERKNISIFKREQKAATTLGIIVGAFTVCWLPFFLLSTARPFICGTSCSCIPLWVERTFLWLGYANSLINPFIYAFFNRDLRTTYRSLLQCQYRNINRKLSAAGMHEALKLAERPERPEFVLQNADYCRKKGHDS

`CCOc1cccc2cc([C@H](C)NCC3(O)CCCCC3)oc12` [O4SE6] was tested, and the “β-arrestin2 recruitment response (dose-response source data, replicate values)” value (5HT2C; Log[Drug] -6.52) was 3.199 and -0.222 and 0.3914 and 1.323 and 0.05601 and 0.9925 and -1.994 and 1.303 and -2.122, the “β-arrestin2 recruitment response in presence of serotonin (replicate values)” value (5HT2C; Log[Drug] -7) was 67.4184 and 56.2577 and 61.082 and 74.1195 and 66.0313 and 86.1338 and 77.8195 and 67.5788 and 79.0331 and the “β-arrestin2 recruitment response (dose-response source data, replicate values)” value (5HT2C; Log[Drug] -7) was -0.4648 and -1.599 and 4.168 and 0.2351 and 1.745 and 2.334 and 14.5501 and 3.184 and 0.1487. The “β-arrestin2 recruitment response in presence of serotonin (replicate values)” value (5HT2C; Log[Drug] -7.52) was 57.9508 and 62.7389 and 68.9932 and 62.9857 and 78.9582 and 61.3863 and 70.1719 and 83.8296 and 68.1225, the “β-arrestin2 recruitment response (dose-response source data, replicate values)” value (5HT2C; Log[Drug] -7.52) was -1.179 and -0.8967 and -0.04778 and 2.819 and 2.117 and -0.4591 and 1.974 and -0.9095 and 6.65 and the “β-arrestin2 recruitment response in presence of serotonin (replicate values)” value (5HT2C; Log[Drug] -8) was 70.2712 and 69.291 and 73.2872 and 71.712 and 66.0148 and 66.2452 and 79.2674 and 70.1943 and 78.2394. The “β-arrestin2 recruitment response (dose-response source data, replicate values)” value (5HT2C; Log[Drug] -8) was -1.7418 and -1.636 and 0.2046 and 0.909 and -0.4958 and 0.1891 and 1.914 and -0.383 and 4.332, the “β-arrestin2 recruitment response in presence of serotonin (replicate values)” value (5HT2C; Log[Drug] -8.52) was 72.9942 and 69.4566 and 60.9768 and 61.1778 and 82.5318 and 58.5381 and 71.529 and 76.0793 and 77.135 and the “β-arrestin2 recruitment response (dose-response source data, replicate values)” value (5HT2C; Log[Drug] -8.52) was -0.5405 and -0.709 and 2.709 and 0.684 and 1.936 and 3.627 and 2.573 and 6.06 and -0.7082. For the same compound, the “β-arrestin2 recruitment response in presence of serotonin (replicate values)” value (5HT2C; Log[Drug] -9) was 65.7886 and 59.3306 and 51.1636 and 117.587 and 77.0604 and 77.3487 and 69.8244 and 87.7165 and 82.2092, the “β-arrestin2 recruitment response (dose-response source data, replicate values)” value (5HT2C; Log[Drug] -9) was -2.125 and 1.403 and -1.228 and 0.9062 and -0.6032 and 0.5546 and 2.207 and 4.8202 and 4.806 and the “β-arrestin2 recruitment response in presence of serotonin (replicate values)” value (5HT2C; Log[Drug] -9.52) was 71.3301 and 78.8962 and 71.9628 and 82.1452 and 81.8826 and 58.8025 and 76.3992 and 91.8022 and 69.3558. The “β-arrestin2 recruitment response (dose-response source data, replicate values)” value (5HT2C; Log[Drug] -9.52) was -0.7505 and -1.198 and -1.073 and 2.378 and 0.7896 and 2.704 and -0.6423 and 0.9477 and 0.7345, the “β-arrestin2 recruitment response, replicate points of concentration-response curve” value (5HT6; Log[Drug] -6) was -0.3035 and the “β-arrestin2 recruitment response, replicate points of concentration-response curve” value (5HT6; Log[Drug] -6.52) was 1.0135 and 1.198 and 5.246 and -9.543 and -10.288 and -8.77 and 1.1615 and -3.588 and -1.1467. For the same compound, the “β-arrestin2 recruitment response, replicate points of concentration-response curve” value (5HT6; Log[Drug] -7) was 1.87 and 1.848 and 8.574 and -11.7696 and -2.512 and -8.797 and 0.1776 and -4.113 and -5.009, the “β-arrestin2 recruitment response, replicate points of concentration-response curve” value (5HT6; Log[Drug] -7.52) was 1.593 and -0.504 and 0.09756 and -12.1009 (2×) and -11.7328 and 60.6717 and -4.6608 and -1.753 and the “β-arrestin2 recruitment response, replicate points of concentration-response curve” value (5HT6; Log[Drug] -8) was 1.669 and -1.382 and -0.2872 and -13.1683 and -12.0825 and -9.524 and -3.196 and -2.353 and 1.768. For the same compound, the “β-arrestin2 recruitment response, replicate points of concentration-response curve” value (5HT6; Log[Drug] -8.52) was 0.775 and 4.666 and 0.9864 and -12.4781 and -7.656 and -12.1009 and 0.3255 and -3.854 and 3.566, the “β-arrestin2 recruitment response, replicate points of concentration-response curve” value (5HT6; Log[Drug] -9) was 2.499 and 9.663 and 0.775 and -0.2945 and -9.561 and -9.543 and -2.049 and -4.424 and -4.173 and the “β-arrestin2 recruitment response, replicate points of concentration-response curve” value (5HT6; Log[Drug] -9.52) was -0.09214 and 0.5474 and -0.9647 and -12.1929 and -11.3831 and -2.5214 and -5.0455 and -0.3107 and 5.623. For the same compound, the “β-arrestin2 recruitment response, replicate points of concentration-response curve” value (5HT6; Log[Drug] -10) was 3.149 and 2.721 and -0.1138 and 8.135 and -9.598 and -12.4689 and 1.768 and 2.893 and -2.7151, the “β-arrestin2 recruitment response, replicate points of concentration-response curve” value (5HT6; Log[Drug] -10.52) was 2.504 and 5.311 and 0.7425 and -10.7297 and -3.616 and -12.1193 and -4.52 and 13.3166 and 0.2515 and the “β-arrestin2 recruitment response, replicate points of concentration-response curve” value (5HT6; Log[Drug] -11) was 0.5474 and 6.401 and -0.2981 and -6.662 and -9.929 and -5.0796 and -2.915 and -3.588 and -2.353. For the same compound, the “β-arrestin2 recruitment response, replicate points of concentration-response curve” value (5HT6; Log[Drug] -11.52) was 1.409 and 4.46 and -0.7262 and -4.371 and -12.837 and -12.1009 and -3.803 and -3.24 and -3.847, the “concentration at which the receptor is activated” value (5HT7A; 5HT7A, agonist activity only at high concentrations) was “over 1 μM” and the “β-arrestin2 recruitment response, replicate points of concentration-response curve” value (5HT7A; Log[Drug] -8.52) was -17.0653 and -8.2658 and 45.2148 and -20.2418 and -21.803 and -0.7194 and -2.896 and -5.6 and 11.1273 and 4.271 and -5.097 and 41.8171. The “β-arrestin2 recruitment response, replicate points of concentration-response curve” value (5HT7A; Log[Drug] -9) was -5.443 and 2.933 and -8.226 and -2.556 and -7.477 and 46.4452 and 15.6099 and 24.9983 and 34.962 and -18.0177 and 28.5192 and 18.5487, the “β-arrestin2 recruitment response, replicate points of concentration-response curve” value (5HT7A; Log[Drug] -9.52) was -12.1477 and -17.9982 and -14.9702 and 11.6094 and 28.1779 and -35.8001 and 6.565 and -15.7686 and -5.626 and -8.555 and 44.6962 and -16.9086 and the “β-arrestin2 recruitment response, replicate points of concentration-response curve” value (5HT7A; Log[Drug] -10) was 8.096 and 0.4862 and 3.854 and 5.12 and -39.6418 and 11.9538 and 0.1785 and 14.2612 and 32.5752 and 35.9646 and 2.796 and -2.0885. For the same compound, the “β-arrestin2 recruitment response, replicate points of concentration-response curve” value (5HT7A; Log[Drug] -10.52) was -7.874 and -13.6459 and -8.622 and -2.931 and 11.0507 and -27.4126 and -0.1587 and -15.0413 and -19.8744 and -43.7994 and 23.1032 and 11.941, the “β-arrestin2 recruitment response, replicate points of concentration-response curve” value (5HT7A; Log[Drug] -11) was -18.3698 and 12.5825 and -5.609 and -19.6985 and -4.821 and 50.3406 and -7.299 and -5.302 and 7.068 and 22.7847 and 5.345 and 29.9587 and the “β-arrestin2 recruitment response, replicate points of concentration-response curve” value (5HT7A; Log[Drug] -11.52) was -11.7405 and -3.06 and 5.3959 and -7.492 and 32.3027 and 44.3713 and -10.4331 and 15.1471 and 38.5521 and -11.882 and -21.4277 and -18.6431. The “β-arrestin2 recruitment response, replicate points of concentration-response curve” value (5HT7A; Log[Drug] -12) was -10.8669 and -8.214 and -4.091 and -12.7879 and 18.5659 and 87.5029 and 6.479 and 24.6612 and 1.765 and 32.6018 and 45.9115 and -9.546.
